Measured values: PMC9231138, “Dihydrotanshinone I Enhances Cell Adhesion and Inhibits Cell Migration in Osteosarcoma U−2 OS Cells through CD44 and Chemokine Signaling” (Molecules, 2022)

What was measured:
FASN = assay: RT-PCR FASN mRNA in U−2 OS cells; format: cell-based, human; details: 24 h
Procedure: (§1) Total RNA within cells was extracted by the RNAeasy™ Animal Long RNA Isolation Kit with Spin Column (Shanghai, Beyotime); the concentrations and OD260/OD280 and OD230/OD260 values were measured by NanoDrop. Five micrograms of RNA was used for reverse transcription; each sample was diluted to 16 μL, and 4 μL of synthesized premix solution (5×) was added, then the mixtures were placed in a 42 °C water bath for 10 min, then an 80 °C water bath for 10 min to deactivate reverse transcriptase. After reverse transcription, each sample was diluted to 140 μL. PCR amplification was carried out by the ABI700 real-time PCR system, and the amplification reaction was detected with a SYBR probe. After PCR, actin and GAPDH were used as internal references, and the relative standard curve method (2^−ΔΔcT) determined the relative expression of mRNA.

slug = assay: RT-PCR slug mRNA in U−2 OS cells; format: cell-based, human; details: 24 h
Procedure: as §1

E-cadherin = assay: RT-PCR E-cadherin mRNA in U−2 OS cells; format: cell-based, human; details: 24 h
Procedure: as §1

U−2 OS cells = assay: Cell adhesion: trypsin digestion time, U−2 OS cells; format: cell-based, human; details: DS−1 7.5 μM for 24 h, trypsin at 25 °C; control within 120 s
Procedure: We wondered if there were other pathways affecting cell migration besides EMT signals.
(§2) Figure 7 DS−1 enhanced U−2 OS cells’ adhesion. (A) The morphological changes of U−2 OS cells treated with/without DS−1. Cells were treated with 0 and 7.5 μM DS−1 for 24 h, washed with PBS, and digested with trypsin at 25 °C under a microscope, and photos were taken every 30 s. The percentages of digested cells are recorded in (B). (C) Heatmap of genes related to the adherens’ junction in the control group and DS−1 group. (D) U−2 OS cells were treated with 0 and 7.5 μM DS−1 for 24 h, and the expression of CD44 was observed by immunofluorescence. (E,F) CD44 and GAPDH were analyzed by Western blot and calculated by Image J. (G) The relative expression of 4 kinds of MT-MMPs was analyzed by the transcriptome, as shown in the heatmap. (H) After being treated with DS−1, the relative expression of MT-MMP-1 was verified by RT-PCR. Values are the average of three independent experiments, * p < 0.05, ** p < 0.01, *** p < 0.005.

NRK−49F cells = assay: Cell adhesion against trypsin digestion, NRK−49F cells; format: cell-based, rat; details: DS-1 6.25, 12.5 μM for 24 h
CD44 = CD44 expression by immunofluorescence; format: cell-based, human; details: DS−1 2.5, 5.0, and 7.5 µM for 24 h
Procedure: as §2
Coverslip preparation: we cultured U−2 OS cells on sterile glass coverslips in 24-well plates and then treated them with DS−1 at different concentrations.
Fixation and staining: We washed the cells with PBS 3 times and fixed the cells with 200 μL 4% paraformaldehyde/PBS solution at 4 °C for 15 min. We then rinsed 3 times with PBS and permeabilized with 200 μL 0.2% TritonX-100 at room temperature for 30 min. […]

MT-MMP-1 = assay: RT-PCR MT-MMP-1 mRNA in U−2 OS cells; format: cell-based, human
Procedure: as §1

CXCL8 = assay: RT-PCR CXCL8 mRNA in U−2 OS cells; format: cell-based, human; details: 24 h
Procedure: as §1

pAKT = assay: Western blot pAKT; format: cell-based, human; details: 24 h
Procedure: (§3) Sample preparation: U−2 OS cells seeded in 10 cm Petri dishes were collected and washed with ice-cold PBS and RIPA lysis buffer with PMAF; phosphatase inhibitor was added, and the tubes were placed on ice for 30 min and vortexed for 30 s at intervals of 10 min. The samples were centrifuged at 12,000 g at 4 °C for 15 min, and the supernatants were collected in new centrifuge tubes. The protein samples were placed on ice, and the concentration of each protein sample was measured by the BCA kit (Thermo). The protein concentration was adjusted to the same by milli Q ultrapure water.
(§4) Loading and running the gel: Equal amounts of protein were loaded into the wells of the 10% SDS-PAGE gel, along with molecular weight markers, and 15 μg of total protein from the cell lysate was loaded. We then ran the gel for 45 min at 200 V.
(§5) Transferring the protein: We prepared the transfer stack as follows: negative plate, sponge, filter paper, gel, PVDF membrane, filter paper, sponge, and positive plate. The transfer was for 90 min at 200 mA.
(§6) Antibody staining: We blocked the membrane for 1 h at room temperature using 5% blocking solution, then incubated the membrane with appropriate dilutions of the primary antibody in the blocking solution overnight at 4 °C. We then washed the membrane with TBST reagent 3 times, 5 min each. Then, we incubated the membrane with the recommended dilution of labeled secondary antibody in blocking solution at room temperature for 1 h and washed the membrane with TBST reagent 3 times, 5 min each. For signal development, super-enhanced chemiluminescence detection reagents were added to the surface of the membrane for 1 min, then excess reagent was removed, and the membrane was covered in transparent plastic wrap. Images were acquired using darkroom development techniques for chemiluminescence and analyzed by Image J.

phospho-STAT3 = assay: Western blot phospho-STAT3; format: cell-based, human; details: 24 h
Procedure: as §3, §4, §5, §6

p53 = assay: Western blot p53; format: cell-based, human; details: DS−1 2.5, 5.0, and 7.5 µM, 24 h
Procedure: as §3, §4, §5
Antibody staining: We blocked the membrane for 1 h at room temperature using 5% blocking solution, then incubated the membrane with appropriate dilutions of the primary antibody in the blocking solution overnight at 4 °C. […] Images were acquired using darkroom development techniques for chemiluminescence and analyzed by Image J.

Structure (SMILES): Cc1cccc2c3c(ccc12)C1=C(C(=O)C3=O)[C@@H](C)CO1 [DS−1, 15,16-Dihydrotanshinone I]
- FASN mRNA, fold of the control group (FASN; DS−1 2.5 µM): 0.59 ± 0.14 fold
- FASN mRNA, fold of the control group (FASN; DS−1 5.0 µM): 0.51 ± 0.07 fold
- FASN mRNA, fold of the control group (FASN; DS−1 7.5 µM): 0.26 ± 0.01 fold
- slug mRNA, fold of the control group (slug; DS−1 5.0 µM): 0.58 ± 0.13 fold
- slug mRNA, fold of the control group (slug; DS−1 7.5 µM): 0.45 ± 0.07 fold
- E-cadherin mRNA, fold of the control group (E-cadherin; DS−1 2.5 µM): 1.21 ± 0.16 fold
- E-cadherin mRNA, fold of the control group (E-cadherin; DS−1 5.0 µM): 1.26 ± 0.25 fold
- E-cadherin mRNA, fold of the control group (E-cadherin; DS−1 7.5 µM): 1.61 ± 0.16 fold
- time of trypsin digestion (U−2 OS cells): ≤ 210 s
- cell adhesion on the cell culture plate against trypsin digestion (NRK−49F cells): stronger cell adhesion
- CD44 expression (CD44): significantly increased
- MT-MMP-1 mRNA expression, fold (MT-MMP-1; DS−1 2.5 µM): 0.92 ± 0.14 fold
- MT-MMP-1 mRNA expression, fold (MT-MMP-1; DS−1 5.0 µM): 0.72 ± 0.03 fold
- MT-MMP-1 mRNA expression, fold (MT-MMP-1; DS−1 7.5 µM): 0.07 ± 0.13 fold
- CXCL8 mRNA, fold (CXCL8; DS−1 2.5 µM): 1.49 ± 0.10 fold
- CXCL8 mRNA, fold (CXCL8; DS−1 5.0 µM): 3.34 ± 0.49 fold
- CXCL8 mRNA, fold (CXCL8; DS−1 7.5 µM): 3.71 ± 0.53 fold
- pAKT, fold of the control group (pAKT; DS−1 5.0 µM): 2.06 ± 0.08 fold
- pAKT, fold of the control group (pAKT; DS−1 7.5 µM): 2.10 ± 0.15 fold
- pAKT/AKT value (pAKT; with the concentration of DS−1 (2.5, 5.0, 7.5 µM)): increased
- phospho-STAT3, fold of the control group (phospho-STAT3; DS−1 2.5 µM): 0.59 ± 0.09 fold
- phospho-STAT3, fold of the control group (phospho-STAT3; DS−1 5.0 µM): 0.43 ± 0.03 fold
- phospho-STAT3, fold of the control group (phospho-STAT3; DS−1 7.5 µM): 0.32 ± 0.03 fold
- ratio of pSTAT3/STAT3 (phospho-STAT3; DS−1 2.5, 5.0, and 7.5 µM): significantly decreased
- level of p53 (p53): significantly increased
